According to US10810329B2, “In silico design of peptides equilibrated in a lipid bilayer with partition free energies indicating probability of antimicrobial activity” (priority 2015, dated 2020):
Values after ≈ are worked out from the molar mass of the structure shown. Peptide text beside a SMILES is read from it.

Assays:
[1] = system: Escherichia coli strain (ATCC 25922); format: cell-based
Procedure: (§1) Minimal inhibitory concentration (MIC) represents for the lowest concentration of peptide at which the AMP can still kill 90% of the bacteria. All MIC tests for WLK peptide series SEQ ID NO:1-13 were measured against Escherichia coli strain (ATCC 25922) in triplicate. Peptide concentration was determined by UV spectrophotometer (Ultrospec 1100 pro from Amersham Biosciences) at 280 nm with proper extinction coefficient. (Gill S. C. & Von Hippel P. H., Analytical biochemistry 1989, 182(2), 319-326). All of the samples were prepared from a stock solution containing peptides of concentrations 5, 2.5, 1.25, 0.625, 0.313, 0.156 and 0.078 mg/ml. Bacteria culture in the middle of logarithmic growth at a concentration of 5×10^5 colony-formation unit (CFU) and protein solution at the aforementioned concentrations were uniformly mixed in a 96-well culture plate (each well contains 1 microliter protein solution and 99 microliter of bacteria culture). After growing the culture at 37° C. for 16 hours, how bacterial growth was inhibited was measured by Thermo Max (Molecular Devices) at the wavelength of 600 nm. The MIC values were determined by triplicates of the above experiments.

E. coli ATCC 25922 = format: cell-based, Escherichia coli; details: for Antimicrobial activity (MIC) Experimental values: ATCC 25922; for MIC in MH medium: ATCC 25922, 16 h
Procedure: as §1, with “MIC: Minimal Inhibitory Concentration of AMPs in MH Medium Against E. coli ATCC 25922 Minimal” for “Minimal”

MIC in LYM medium, NaCl 50 [1] [mg/L] | MIC in LYM medium, NaCl 100 [1] [mg/L] | MIC in LYM medium, NaCl 200 [1] [mg/L] | MIC in LYM medium, NaCl 300 [1] [mg/L] | MIC in LYM medium, control [1] [mg/L] | Antimicrobial activity (MIC) Experimental values (E. coli ATCC 25922) [mg/L] | MIC in MH medium (E. coli ATCC 25922) [mg/L] | SMILES
3.13 (≈ 1.73 µM) | 3.13 (≈ 1.73 µM) | 12.5 (≈ 6.89 µM) | 50 (≈ 27.6 µM) | 3.13 (≈ 1.73 µM) | 6.25 | 6.25 (≈ 3.45 µM) | CC(C)C[C@H](NC(=O)[C@H](Cc1c[nH]c2ccccc12)NC(=O)[C@H](CCCCN)NC(=O)[C@H](CC(C)C)NC(=O)[C@H](Cc1c[nH]c2ccccc12)NC(=O)[C@H](CCCCN)NC(=O)[C@H](CCCCN)NC(=O)[C@H](CCCCN)NC(=O)[C@H](CCCCN)NC(=O)[C@H](CCCCN)NC(=O)[C@H](CC(C)C)NC(=O)[C@@H](N)Cc1c[nH]c2ccccc12)C(=O)N[C@@H](CCCCN)C(=O)O [SEQ ID NO. 9, WLKKKKKWLKWLK] (H-WLKKKKKWLKWLK-OH; N-terminus and C-terminus assumed)
3.13 (≈ 1.73 µM) | 3.13 (≈ 1.73 µM) | 6.25 (≈ 3.45 µM) | 25 (≈ 13.8 µM) | 3.13 (≈ 1.73 µM) | 6.25 | 6.25 (≈ 3.45 µM) | CC(C)C[C@H](NC(=O)[C@H](Cc1c[nH]c2ccccc12)NC(=O)[C@H](CCCCN)NC(=O)[C@H](CC(C)C)NC(=O)[C@H](Cc1c[nH]c2ccccc12)NC(=O)[C@H](CCCCN)NC(=O)[C@H](CCCCN)NC(=O)[C@H](CCCCN)NC(=O)[C@H](CCCCN)NC(=O)[C@H](CCCCN)NC(=O)[C@@H](N)CC(C)C)C(=O)N[C@@H](CCCCN)C(=O)N[C@@H](Cc1c[nH]c2ccccc12)C(=O)O [SEQ ID NO. 10, LKKKKKWLKWLKW] (H-LKKKKKWLKWLKW-OH; N-terminus and C-terminus assumed)
3.13 (≈ 1.73 µM) | 3.13 (≈ 1.73 µM) | 6.25 (≈ 3.45 µM) | 12.5 (≈ 6.89 µM) | 3.13 (≈ 1.73 µM) | 6.25 | 6.25 (≈ 3.45 µM) | CC(C)C[C@H](NC(=O)[C@H](Cc1c[nH]c2ccccc12)NC(=O)[C@H](CCCCN)NC(=O)[C@H](CC(C)C)NC(=O)[C@H](Cc1c[nH]c2ccccc12)NC(=O)[C@H](CCCCN)NC(=O)[C@H](CCCCN)NC(=O)[C@H](CCCCN)NC(=O)[C@H](CCCCN)NC(=O)[C@H](CCCCN)NC(=O)[C@H](CC(C)C)NC(=O)[C@H](Cc1c[nH]c2ccccc12)NC(=O)[C@@H](N)CCCCN)C(=O)O [SEQ ID NO. 8, KWLKKKKKWLKWL] (H-KWLKKKKKWLKWL-OH; N-terminus and C-terminus assumed)
1.56 (≈ 0.86 µM) | 1.56 (≈ 0.86 µM) | 1.56 (≈ 0.86 µM) | 3.13 (≈ 1.73 µM) | 1.56 (≈ 0.86 µM) | 1.56 | 1.56 (≈ 0.86 µM) | CC(C)C[C@H](NC(=O)[C@H](Cc1c[nH]c2ccccc12)NC(=O)[C@H](CCCCN)NC(=O)[C@H](CC(C)C)NC(=O)[C@H](Cc1c[nH]c2ccccc12)NC(=O)[C@H](CCCCN)NC(=O)[C@H](CC(C)C)NC(=O)[C@H](Cc1c[nH]c2ccccc12)NC(=O)[C@H](CCCCN)NC(=O)[C@H](CCCCN)NC(=O)[C@H](CCCCN)NC(=O)[C@H](CCCCN)NC(=O)[C@@H](N)CCCCN)C(=O)O [SEQ ID NO. 11, KKKKKWLKWLKWL] (H-KKKKKWLKWLKWL-OH; N-terminus and C-terminus assumed)

Further lines, the compound ahead of its results:

SMILES | MIC in LYM medium, NaCl 50 [1] [mg/L] | MIC in LYM medium, NaCl 100 [1] [mg/L] | MIC in LYM medium, NaCl 200 [1] [mg/L] | MIC in LYM medium, NaCl 300 [1] [mg/L] | MIC in LYM medium, control [1] [mg/L] | Antimicrobial activity (MIC) Experimental values (E. coli ATCC 25922) [mg/L] | MIC in MH medium (E. coli ATCC 25922) [mg/L]
CC(C)C[C@H](NC(=O)[C@H](Cc1c[nH]c2ccccc12)NC(=O)[C@H](CCCCN)NC(=O)[C@H](CCCCN)NC(=O)[C@H](CCCCN)NC(=O)[C@H](CCCCN)NC(=O)[C@H](CCCCN)NC(=O)[C@H](CC(C)C)NC(=O)[C@H](Cc1c[nH]c2ccccc12)NC(=O)[C@H](CCCCN)NC(=O)[C@@H](N)CC(C)C)C(=O)N[C@@H](CCCCN)C(=O)N[C@@H](Cc1c[nH]c2ccccc12)C(=O)O [SEQ ID NO. 7, LKWLKKKKKWLKW] (H-LKWLKKKKKWLKW-OH; N-terminus and C-terminus assumed) | 3.13 (≈ 1.73 µM) | 6.25 (≈ 3.45 µM) | 12.5 (≈ 6.89 µM) | 50 (≈ 27.6 µM) | 3.13 (≈ 1.73 µM) | 12.5 | 12.5 (≈ 6.89 µM)
CC(C)C[C@H](NC(=O)[C@H](Cc1c[nH]c2ccccc12)NC(=O)[C@H](CCCCN)NC(=O)[C@H](CC(C)C)NC(=O)[C@H](Cc1c[nH]c2ccccc12)NC(=O)[C@H](CCCCN)NC(=O)[C@H](CC(C)C)NC(=O)[C@H](Cc1c[nH]c2ccccc12)NC(=O)[C@@H](N)CCCCN)C(=O)N[C@@H](CCCCN)C(=O)N[C@@H](CCCCN)C(=O)N[C@@H](CCCCN)C(=O)N[C@@H](CCCCN)C(=O)O [SEQ ID NO. 2, KWLKWLKWLKKKK] (H-KWLKWLKWLKKKK-OH; N-terminus and C-terminus assumed) | 1.56 (≈ 0.86 µM) | 6.25 (≈ 3.45 µM) | 12.5 (≈ 6.89 µM) | 12.5 (≈ 6.89 µM) | 1.56 (≈ 0.86 µM) | 6.25 | 6.25 (≈ 3.45 µM)
CC(C)C[C@H](NC(=O)[C@H](Cc1c[nH]c2ccccc12)NC(=O)[C@H](CCCCN)NC(=O)[C@H](CCCCN)NC(=O)[C@H](CCCCN)NC(=O)[C@H](CCCCN)NC(=O)[C@H](CCCCN)NC(=O)[C@H](CC(C)C)NC(=O)[C@H](Cc1c[nH]c2ccccc12)NC(=O)[C@H](CCCCN)NC(=O)[C@H](CC(C)C)NC(=O)[C@@H](N)Cc1c[nH]c2ccccc12)C(=O)N[C@@H](CCCCN)C(=O)O [SEQ ID NO. 6, WLKWLKKKKKWLK] (H-WLKWLKKKKKWLK-OH; N-terminus and C-terminus assumed) | 3.13 (≈ 1.73 µM) | 6.25 (≈ 3.45 µM) | 12.5 (≈ 6.89 µM) | 25 (≈ 13.8 µM) | 1.56 (≈ 0.86 µM) | 6.25 | 6.25 (≈ 3.45 µM)
CC(C)C[C@H](NC(=O)[C@H](Cc1c[nH]c2ccccc12)NC(=O)[C@H](CCCCN)NC(=O)[C@H](CCCCN)NC(=O)[C@H](CCCCN)NC(=O)[C@H](CCCCN)NC(=O)[C@H](CCCCN)NC(=O)[C@H](CC(C)C)NC(=O)[C@H](Cc1c[nH]c2ccccc12)NC(=O)[C@H](CCCCN)NC(=O)[C@H](CC(C)C)NC(=O)[C@H](Cc1c[nH]c2ccccc12)NC(=O)[C@@H](N)CCCCN)C(=O)O [SEQ ID NO. 5, KWLKWLKKKKKWL] (H-KWLKWLKKKKKWL-OH; N-terminus and C-terminus assumed) | 3.13 (≈ 1.73 µM) | 12.5 (≈ 6.89 µM) | 25 (≈ 13.8 µM) | 50 (≈ 27.6 µM) | 3.13 (≈ 1.73 µM) | 12.5 | 12.5 (≈ 6.89 µM)
CC(C)C[C@H](NC(=O)[C@H](Cc1c[nH]c2ccccc12)NC(=O)[C@H](CCCCN)NC(=O)[C@H](CC(C)C)NC(=O)[C@H](Cc1c[nH]c2ccccc12)NC(=O)[C@H](CCCCN)NC(=O)[C@@H](N)CC(C)C)C(=O)N[C@@H](CCCCN)C(=O)N[C@@H](CCCCN)C(=O)N[C@@H](CCCCN)C(=O)N[C@@H](CCCCN)C(=O)N[C@@H](CCCCN)C(=O)N[C@@H](Cc1c[nH]c2ccccc12)C(=O)O [SEQ ID NO. 4, LKWLKWLKKKKKW] (H-LKWLKWLKKKKKW-OH; N-terminus and C-terminus assumed) | 3.13 (≈ 1.73 µM) | 3.13 (≈ 1.73 µM) | 12.5 (≈ 6.89 µM) | 50 (≈ 27.6 µM) | 1.56 (≈ 0.86 µM) | 12.5 | 12.5 (≈ 6.89 µM)
